pEC50: −log10 of the molar value.
target: T1, GLP-1R (Homo sapiens, UniProt P43220); assay: GLP-1R activation cAMP assay (Assay 1 or Assay 2); type: cell-based; conditions: cAMP increase in CHO cells stably expressing GLP-1R; compounds run on one of the two cAMP assays
T1 construct: host or cells: CHO cells
How it was run: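 CHO cells stably expressing human GLP-1R were incubated 1 h in HBSS/20 mM HEPES/0.1% BSA, then exposed to 10-point agonist dilutions for 30 min at 37 °C. cAMP increase was measured with an HTRF Gs dynamic kit; EC50 from sigmoidal fit of response versus log concentration.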

T1 sequence (P43220 24-463): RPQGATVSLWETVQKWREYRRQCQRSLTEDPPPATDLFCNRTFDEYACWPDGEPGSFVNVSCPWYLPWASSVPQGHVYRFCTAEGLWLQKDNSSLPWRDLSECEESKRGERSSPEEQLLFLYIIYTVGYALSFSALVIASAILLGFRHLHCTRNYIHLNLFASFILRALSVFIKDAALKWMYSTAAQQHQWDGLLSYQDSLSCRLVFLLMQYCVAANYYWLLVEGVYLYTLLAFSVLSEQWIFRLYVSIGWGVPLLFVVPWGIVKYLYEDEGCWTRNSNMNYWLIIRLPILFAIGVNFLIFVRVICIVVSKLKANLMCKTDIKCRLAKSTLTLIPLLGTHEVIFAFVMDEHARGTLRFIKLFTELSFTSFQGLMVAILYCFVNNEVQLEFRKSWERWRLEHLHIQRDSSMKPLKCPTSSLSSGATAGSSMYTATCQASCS

| Compound | pEC50 |
| --- | --- |
| O=C(O)c1ccc2nc(Cc3cc(F)c(-c4cccc(OCc5ncc(-c6cnsc6)s5)n4)cc3F)n(C[C@@H]3CCO3)c2c1 [Example 95, (S)-2-(2,5-difluoro-4-(6-((5-(isothiazol-4-yl)thiazol-2-yl)methoxy)pyridin-2-yl)benzyl)-1-(oxetan-2-ylmethyl)-1H-benzo[d]imidazole-6-carboxylic acid] | 10.10 |
| COc1nnc(COc2nc(-c3cc(F)c(Cc4nc5c(F)cc(C(=O)O)cc5n4[C@@H]4COCC4(C)C)cc3F)ccc2F)s1 [Example 346, (S)-2-(2,5-difluoro-4-(5-fluoro-6-((5-methoxy-1,3,4-thiadiazol-2-yl)methoxy)pyridin-2-yl)benzyl)-1-(4,4-dimethyltetrahydrofuran-3-yl)-4-fluoro-1H-benzo[d]imidazole-6-carboxylic acid] | 10.57 |
| O=C(O)c1ccc2nc(Cc3cc(F)c(-c4cccc(OCc5ccn(-c6ccccc6)n5)n4)cc3F)n(C[C@@H]3CCO3)c2c1 [Example 120, (S)-2-(2,5-difluoro-4-(6-((1-phenyl-1H-pyrazol-3-yl)methoxy)pyridin-2-yl)benzyl)-1-(oxetan-2-ylmethyl)-1H-benzo[d]imidazole-6-carboxylic acid] | 8.55 |
| CCOc1nnc(COc2cccc(-c3cc(F)c(Cc4nc5ccc(C(=O)O)cc5n4[C@@H]4COCC4(C)C)cc3F)n2)s1 [Example 430, (S)-1-(4,4-dimethyltetrahydrofuran-3-yl)-2-(4-(6-((5-ethoxy-1,3,4-thiadiazol-2-yl)methoxy)pyridin-2-yl)-2,5-difluorobenzyl)-1H-benzo[d]imidazole-6-carboxylic acid] | 10.41 |
| O=C(O)c1ccc2nc(Cc3cc(F)c(-c4cccc(OCc5nnc(OC6CC(C(F)F)C6)s5)n4)cc3F)n(C[C@@H]3CCO3)c2c1 (stereo partly drawn) [Example 347, (S)-2-(4-(6-((5-(3-(difluoromethyl)cyclobutoxy)-1,3,4-thiadiazol-2-yl)methoxy)pyridin-2-yl)-2,5-difluorobenzyl)-1-(oxetan-2-ylmethyl)-1H-benzo[d]imidazole-6-carboxylic acid] | 9.57 |
| Cn1cc(Cl)c(COc2cccc(-c3cc(F)c(Cc4nc5ccc(C(=O)O)cc5n4C[C@@H]4CCO4)cc3F)n2)n1 [Example 78, (S)-2-(4-(6-((4-chloro-1-methyl-1H-pyrazol-3-yl)methoxy)pyridin-2-yl)-2,5-difluorobenzyl)-1-(oxetan-2-ylmethyl)-1H-benzo[d]imidazole-6-carboxylic acid] | 8.03 |
| NC(=O)c1ccc(COc2nccc(-c3cc(F)c(Cc4nc5ccc(C(=O)O)cc5n4C[C@@H]4CCO4)cc3F)n2)c(OC(F)F)n1 [Example 223, (S)-2-(4-(2-((6-carbamoyl-2-(difluoromethoxy)pyridin-3-yl)methoxy)pyrimidin-4-yl)-2,5-difluorobenzyl)-1-(oxetan-2-ylmethyl)-1H-benzo[d]imidazole-6-carboxylic acid] | 9.29 |
| N#Cc1ccc(-c2cnc(COc3cccc(-c4cc(F)c(Cc5nc6ccc(C(=O)O)cc6n5C[C@@H]5CCO5)cc4F)n3)s2)cc1 [Example 383, (S)-2-(4-(6-((5-(4-cyanophenyl)thiazol-2-yl)methoxy)pyridin-2-yl)-2,5-difluorobenzyl)-1-(oxetan-2-ylmethyl)-1H-benzo[d]imidazole-6-carboxylic acid] | 9.22 |
| N#Cc1ccc(C#Cc2cnc(COc3cccc(-c4cc(F)c(Cc5nc6ccc(C(=O)O)cc6n5C[C@@H]5CCO5)cc4F)n3)nc2)cc1 [Example 404, (S)-2-(4-(6-((5-((4-cyanophenyl)ethynyl)pyrimidin-2-yl)methoxy)pyridin-2-yl)-2,5-difluorobenzyl)-1-(oxetan-2-ylmethyl)-1H-benzo[d]imidazole-6-carboxylic acid] | 9.16 |
| CC(F)(F)c1cnc(COc2nc(-c3cc(F)c(Cc4nc5c(F)cc(C(=O)O)cc5n4[C@@H]4COCC4(C)C)cc3F)ccc2F)s1 [Example 338, (S)-2-(4-(6-((5-(1,1-difluoroethyl)thiazol-2-yl)methoxy)-5-fluoropyridin-2-yl)-2,5-difluorobenzyl)-1-(4,4-dimethyltetrahydrofuran-3-yl)-4-fluoro-1H-benzo[d]imidazole-6-carboxylic acid] | 9.66 |
| O=C(O)c1ccc2nc(Cc3cc(F)c(-c4cccc(OCc5ncc(-c6cnccn6)s5)n4)cc3F)n(C[C@@H]3CCO3)c2c1 [Example 106, (S)-2-(2,5-difluoro-4-(6-((5-(pyrazin-2-yl)thiazol-2-yl)methoxy)pyridin-2-yl)benzyl)-1-(oxetan-2-ylmethyl)-1H-benzo[d]imidazole-6-carboxylic acid] | 9.85 |
| Cc1cc(Cc2nc3ccc(C(=O)O)cc3n2[C@@H]2COCC2(C)C)c(Cl)cc1-c1cccc(OCc2ncc(C(C)(F)F)s2)n1 [Example 428, (S)-2-(2-chloro-4-(6-((5-(1,1-difluoroethyl)thiazol-2-yl)methoxy)pyridin-2-yl)-5-methylbenzyl)-1-(4,4-dimethyltetrahydrofuran-3-yl)-1H-benzo[d]imidazole-6-carboxylic acid] | 8.44 |

Further molecules by rising pEC50, results first:

| pEC50 | Compound |
| --- | --- |
| 8.18 | O=C(O)c1ccc2nc(Cc3cc(F)c(-c4cccc(OCc5ccn(CC(F)(F)F)n5)n4)cc3F)n(C[C@@H]3CCO3)c2c1 [Example 66, (S)-2-(2,5-difluoro-4-(6-((1-(2,2,2-trifluoroethyl)-1H-pyrazol-3-yl)methoxy)pyridin-2-yl)benzyl)-1-(oxetan-2-ylmethyl)-1H-benzo[d]imidazole-6-carboxylic acid] |
| 8.63 | Cn1c(COc2cccc(-c3cc(F)c(Cc4nc5ccc(C(=O)O)cc5n4C[C@@H]4CCO4)cc3F)n2)nc2ccccc21 [Example 48, (S)-2-(2,5-difluoro-4-(6-((1-methyl-1H-benzo[d]imidazol-2-yl)methoxy)pyridin-2-yl)benzyl)-1-(oxetan-2-ylmethyl)-1H-benzo[d]imidazole-6-carboxylic acid] |
| 9.29 | O=C(O)c1ccc2nc(Cc3cc(F)c(-c4cccc(OCc5ccc(-n6cnc(C7CC7)n6)nc5)n4)cc3F)n(C[C@@H]3CCO3)c2c1 [Example 211, 2-[[4-[6-[[6-(3-cyclopropyl-1,2,4-triazol-1-yl)-3-pyridyl]methoxy]-2-pyridyl]-2,5-difluoro-phenyl]methyl]-3-[[(2S)-oxetan-2-yl]methyl]benzimidazole-5-carboxylic acid] |
| 9.42 | Cc1cnc(COc2cccc(-c3cc(F)c(Cc4nc5ccc(C(=O)O)cc5n4C[C@@H]4CCO4)cc3F)n2)s1 [Example 327, (S)-2-(2,5-difluoro-4-(6-((5-methylthiazol-2-yl)methoxy)pyridin-2-yl)benzyl)-1-(oxetan-2-ylmethyl)-1H-benzo[d]imidazole-6-carboxylic acid] |
| 9.55 | O=C(O)c1ccc2nc(Cc3cc(F)c(-c4cccc(OCc5ncc(C#CC6(O)CCC6)s5)n4)cc3F)n(C[C@@H]3CCO3)c2c1 [Example 323, (S)-2-(2,5-difluoro-4-(6-((5-((1-hydroxycyclobutyl)ethynyl)thiazol-2-yl)methoxy)pyridin-2-yl)benzyl)-1-(oxetan-2-ylmethyl)-1H-benzo[d]imidazole-6-carboxylic acid] |
| 10.02 | O=C(O)c1cc(F)c2nc(Cc3cc(F)c(-c4ccc(F)c(OCc5ncc(-c6cnn(C(F)F)c6)s5)c4)cc3F)n(C[C@@H]3CCO3)c2c1 [Example 387, (S)-2-((3′-((5-(1-(difluoromethyl)-1H-pyrazol-4-yl)thiazol-2-yl)methoxy)-2,4′,5-trifluoro-[1,1′-biphenyl]-4-yl)methyl)-4-fluoro-1-(oxetan-2-ylmethyl)-1H-benzo[d]imidazole-6-carboxylic acid] |
